Measured values reported in paper PMC12090182, “Repurposing of the RIPK1-Selective Benzo[1,4]oxazepin-4-one Scaffold for the Development of a Type III LIMK1/2 Inhibitor” (ACS Chemical Biology, 2025).

Experiments:
Experiment in all cases: scanMAX KINOMEscan (Eurofins)
Format in all cases: binding
PRKD1 = PRKD1 (Homo sapiens, UniProt Q15139); conditions: 1000 nM, read-out: Percent Control
Source text: (§1) Supplement cb5c00097_si_002.xlsx, sheet "Table S6 (Eurofins Selectivity)" | column: Percent Control

FRK = FRK (Homo sapiens, UniProt P42685); conditions: 1000 nM, read-out: Percent Control
Source text: as §1

TLK2 = TLK2 (Homo sapiens, UniProt Q86UE8); conditions: compound concentration 100 nM; Entrez TLK2; read-out: Percent Control
Source text: as §1

ACVRL1 = ACVRL1 (Homo sapiens, UniProt P37023); conditions: 1000 nM, read-out: Percent Control
Source text: as §1

[1] = target: RSK2(Kin.Dom.1-N-terminal) (Homo sapiens, UniProt P51812); conditions: compound concentration 100 nM; Entrez RPS6KA3; read-out: Percent Control
Source text: as §1

CDKL5 = CDKL5 (Homo sapiens, UniProt O76039); conditions: read-out: Percent Control
Chain of CDKL5 (O76039 whole entry): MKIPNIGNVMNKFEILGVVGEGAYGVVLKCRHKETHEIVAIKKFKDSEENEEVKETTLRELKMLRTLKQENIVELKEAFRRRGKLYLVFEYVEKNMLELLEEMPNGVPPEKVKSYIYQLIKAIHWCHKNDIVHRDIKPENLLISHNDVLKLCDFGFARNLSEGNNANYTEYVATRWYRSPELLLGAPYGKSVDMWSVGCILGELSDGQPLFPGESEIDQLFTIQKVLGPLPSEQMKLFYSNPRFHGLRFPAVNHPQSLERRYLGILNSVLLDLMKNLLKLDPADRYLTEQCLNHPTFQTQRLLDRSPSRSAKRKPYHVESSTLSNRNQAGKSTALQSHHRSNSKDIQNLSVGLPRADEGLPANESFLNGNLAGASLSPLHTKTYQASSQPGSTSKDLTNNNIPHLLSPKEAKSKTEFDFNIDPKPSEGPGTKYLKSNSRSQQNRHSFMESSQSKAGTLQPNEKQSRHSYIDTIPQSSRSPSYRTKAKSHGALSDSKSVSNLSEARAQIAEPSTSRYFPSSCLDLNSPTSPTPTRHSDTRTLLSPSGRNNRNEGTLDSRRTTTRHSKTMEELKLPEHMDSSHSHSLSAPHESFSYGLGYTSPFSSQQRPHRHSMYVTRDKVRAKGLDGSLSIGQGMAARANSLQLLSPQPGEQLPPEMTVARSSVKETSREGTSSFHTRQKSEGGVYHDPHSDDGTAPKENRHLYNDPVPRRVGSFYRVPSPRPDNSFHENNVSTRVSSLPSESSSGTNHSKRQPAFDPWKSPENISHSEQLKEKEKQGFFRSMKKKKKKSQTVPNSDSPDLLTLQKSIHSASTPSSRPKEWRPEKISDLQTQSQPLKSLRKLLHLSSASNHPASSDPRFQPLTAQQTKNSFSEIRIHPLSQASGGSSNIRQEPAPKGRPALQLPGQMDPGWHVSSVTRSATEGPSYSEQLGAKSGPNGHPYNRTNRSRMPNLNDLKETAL
Source text: as §1

PCTK1 = PCTK1 (Homo sapiens, UniProt Q00536); conditions: compound concentration 100 nM; Entrez CDK16; read-out: Percent Control
Source text: as §1

BMPR1B = BMPR1B (Homo sapiens, UniProt O00238); conditions: read-out: Percent Control
Chain of BMPR1B (O00238 14-502): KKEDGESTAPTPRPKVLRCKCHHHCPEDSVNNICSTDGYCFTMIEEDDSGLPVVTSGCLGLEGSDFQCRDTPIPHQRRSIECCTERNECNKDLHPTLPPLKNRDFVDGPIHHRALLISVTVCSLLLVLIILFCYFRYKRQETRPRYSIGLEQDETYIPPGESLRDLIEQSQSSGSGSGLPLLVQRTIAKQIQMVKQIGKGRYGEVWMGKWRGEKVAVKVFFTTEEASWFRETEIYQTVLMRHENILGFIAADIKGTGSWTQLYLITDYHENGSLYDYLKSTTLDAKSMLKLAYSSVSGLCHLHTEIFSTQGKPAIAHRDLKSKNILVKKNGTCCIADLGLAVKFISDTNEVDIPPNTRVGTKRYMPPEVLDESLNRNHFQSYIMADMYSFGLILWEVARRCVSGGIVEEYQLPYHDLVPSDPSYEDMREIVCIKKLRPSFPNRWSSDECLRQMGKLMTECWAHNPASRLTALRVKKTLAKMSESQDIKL
Source text: as §1

[2] = target: RPS6KA4(Kin.Dom.1-N-terminal) (Homo sapiens, UniProt O75676); conditions: compound concentration 100 nM; Entrez RPS6KA4; read-out: Percent Control
Source text: as §1

GRK4 = GRK4 (Homo sapiens, UniProt P32298); conditions: 1000 nM, read-out: Percent Control
Source text: as §1

CDK7 = CDK7 (Homo sapiens, UniProt P50613); conditions: read-out: Percent Control
Chain of CDK7 (P50613 whole entry): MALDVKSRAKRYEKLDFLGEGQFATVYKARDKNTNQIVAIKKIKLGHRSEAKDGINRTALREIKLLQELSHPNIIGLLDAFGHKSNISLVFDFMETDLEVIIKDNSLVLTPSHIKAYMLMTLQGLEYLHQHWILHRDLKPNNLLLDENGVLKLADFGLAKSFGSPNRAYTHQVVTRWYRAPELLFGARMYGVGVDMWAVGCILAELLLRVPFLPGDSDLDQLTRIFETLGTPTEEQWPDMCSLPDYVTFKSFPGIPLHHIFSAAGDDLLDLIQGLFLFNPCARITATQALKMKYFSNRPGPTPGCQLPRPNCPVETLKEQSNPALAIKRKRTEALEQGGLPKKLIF
Source text: as §1

GSK3A = GSK3A (Homo sapiens, UniProt P49840); conditions: 1000 nM, read-out: Percent Control
Source text: as §1

NDR1 = NDR1 (Homo sapiens, UniProt Q15208); conditions: 1000 nM, read-out: Percent Control
Source text: as §1

MET = MET (Homo sapiens, UniProt P08581); conditions: 1000 nM, read-out: Percent Control
Source text: as §1

AMPK-alpha2 = AMPK-alpha2 (Homo sapiens, UniProt P54646); conditions: read-out: Percent Control
Chain of AMPK-alpha2 (P54646 whole entry): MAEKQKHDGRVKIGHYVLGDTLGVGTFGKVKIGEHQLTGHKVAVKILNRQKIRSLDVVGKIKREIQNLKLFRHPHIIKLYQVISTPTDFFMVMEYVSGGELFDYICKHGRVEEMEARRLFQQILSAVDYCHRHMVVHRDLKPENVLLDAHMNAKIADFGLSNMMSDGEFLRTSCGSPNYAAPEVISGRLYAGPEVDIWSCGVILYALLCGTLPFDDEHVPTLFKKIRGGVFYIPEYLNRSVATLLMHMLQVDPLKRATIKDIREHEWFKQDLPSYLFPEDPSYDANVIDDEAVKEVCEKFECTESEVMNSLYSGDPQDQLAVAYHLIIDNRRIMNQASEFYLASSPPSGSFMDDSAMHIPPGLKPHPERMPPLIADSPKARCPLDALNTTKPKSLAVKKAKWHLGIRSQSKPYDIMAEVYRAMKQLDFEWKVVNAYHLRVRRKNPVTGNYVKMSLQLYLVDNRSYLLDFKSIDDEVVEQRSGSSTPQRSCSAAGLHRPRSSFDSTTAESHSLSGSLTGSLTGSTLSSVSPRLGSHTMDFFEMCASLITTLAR
Source text: as §1

DAPK1 = DAPK1 (Homo sapiens, UniProt P53355); conditions: 1000 nM, read-out: Percent Control
Source text: as §1

TGFBR1 = TGFBR1 (Homo sapiens, UniProt P36897); conditions: compound concentration 100 nM; Entrez TGFBR1; read-out: Percent Control
Source text: as §1

BRSK1 = BRSK1 (Homo sapiens, UniProt Q8TDC3); conditions: 1000 nM, read-out: Percent Control
Source text: as §1

SGK = SGK (Homo sapiens, UniProt O00141); conditions: compound concentration 100 nM; Entrez SGK1; read-out: Percent Control
Source text: as §1

MAP4K4 = MAP4K4 (Homo sapiens, UniProt O95819); conditions: 1000 nM, read-out: Percent Control
Source text: as §1

ERK8 = ERK8 (Homo sapiens, UniProt Q8TD08); conditions: read-out: Percent Control
Chain of ERK8 (Q8TD08 whole entry): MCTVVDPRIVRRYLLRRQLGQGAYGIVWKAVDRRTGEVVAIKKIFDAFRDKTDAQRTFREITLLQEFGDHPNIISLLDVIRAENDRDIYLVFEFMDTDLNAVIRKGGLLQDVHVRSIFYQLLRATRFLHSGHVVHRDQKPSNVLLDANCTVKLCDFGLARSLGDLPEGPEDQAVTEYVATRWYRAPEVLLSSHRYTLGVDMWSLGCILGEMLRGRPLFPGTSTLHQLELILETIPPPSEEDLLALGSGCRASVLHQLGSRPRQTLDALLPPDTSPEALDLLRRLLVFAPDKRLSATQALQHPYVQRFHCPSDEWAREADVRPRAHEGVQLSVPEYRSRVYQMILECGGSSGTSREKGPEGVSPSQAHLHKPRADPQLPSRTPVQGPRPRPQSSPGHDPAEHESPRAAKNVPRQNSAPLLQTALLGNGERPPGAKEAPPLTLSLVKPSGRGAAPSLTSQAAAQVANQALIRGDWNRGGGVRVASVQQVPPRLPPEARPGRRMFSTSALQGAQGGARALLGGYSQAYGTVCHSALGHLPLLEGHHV
Source text: as §1

HCK = HCK (Homo sapiens, UniProt P08631); conditions: 1000 nM, read-out: Percent Control
Chain of HCK (P08631 whole entry): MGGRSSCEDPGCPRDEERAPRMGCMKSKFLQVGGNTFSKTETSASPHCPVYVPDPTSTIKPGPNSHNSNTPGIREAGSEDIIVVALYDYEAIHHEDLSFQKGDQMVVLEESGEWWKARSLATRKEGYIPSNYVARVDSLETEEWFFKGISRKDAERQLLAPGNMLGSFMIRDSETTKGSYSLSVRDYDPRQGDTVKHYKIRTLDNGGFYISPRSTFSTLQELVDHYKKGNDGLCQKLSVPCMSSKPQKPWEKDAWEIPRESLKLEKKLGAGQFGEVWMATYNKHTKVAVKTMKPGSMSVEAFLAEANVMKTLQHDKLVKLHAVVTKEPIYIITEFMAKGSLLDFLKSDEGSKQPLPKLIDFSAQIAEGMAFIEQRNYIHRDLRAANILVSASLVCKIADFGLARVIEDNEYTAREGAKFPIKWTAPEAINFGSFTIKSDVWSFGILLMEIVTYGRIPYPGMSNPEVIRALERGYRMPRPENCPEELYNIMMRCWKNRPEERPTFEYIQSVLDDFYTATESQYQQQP
Source text: as §1

AKT1 = AKT1 (Homo sapiens, UniProt P31749); conditions: 1000 nM, read-out: Percent Control
Source text: as §1

PFPK5(P.falciparum) = PFPK5(P.falciparum) (Plasmodium falciparum, UniProt P61075); conditions: 1000 nM, read-out: Percent Control
Source text: as §1

SRPK1 = SRPK1 (Homo sapiens, UniProt Q96SB4); conditions: 1000 nM, read-out: Percent Control
Source text: as §1

CDK5 = CDK5 (Homo sapiens, UniProt Q00535); conditions: read-out: Percent Control
Chain of CDK5 (Q15078 whole entry): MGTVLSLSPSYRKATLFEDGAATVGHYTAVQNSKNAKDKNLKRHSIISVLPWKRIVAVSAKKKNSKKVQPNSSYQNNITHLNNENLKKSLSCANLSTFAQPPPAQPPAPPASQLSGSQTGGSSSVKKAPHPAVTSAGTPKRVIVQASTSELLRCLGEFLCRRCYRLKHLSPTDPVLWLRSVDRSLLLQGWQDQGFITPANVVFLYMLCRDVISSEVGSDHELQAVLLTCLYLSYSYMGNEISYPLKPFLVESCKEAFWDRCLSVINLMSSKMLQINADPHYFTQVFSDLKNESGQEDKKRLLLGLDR
Chain of CDK5 (Q00535 whole entry): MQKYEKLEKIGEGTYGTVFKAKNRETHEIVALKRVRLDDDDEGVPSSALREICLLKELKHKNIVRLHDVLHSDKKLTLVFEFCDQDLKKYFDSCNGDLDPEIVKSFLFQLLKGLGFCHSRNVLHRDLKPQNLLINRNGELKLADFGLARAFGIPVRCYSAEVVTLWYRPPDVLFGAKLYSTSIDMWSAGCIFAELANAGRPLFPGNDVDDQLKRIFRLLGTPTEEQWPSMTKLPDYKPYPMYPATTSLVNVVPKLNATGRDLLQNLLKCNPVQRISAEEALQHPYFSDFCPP
Source text: as §1

PIM2 = PIM2 (Homo sapiens, UniProt Q9P1W9); conditions: 1000 nM, read-out: Percent Control
Source text: as §1

AURKC = AURKC (Homo sapiens, UniProt Q9UQB9); conditions: 1000 nM, read-out: Percent Control
Source text: as §1

PCTK3 = PCTK3 (Homo sapiens, UniProt Q07002); conditions: 1000 nM, read-out: Percent Control
Source text: as §1

WNK1 = WNK1 (Homo sapiens, UniProt Q9H4A3); conditions: compound concentration 100 nM; Entrez WNK1; read-out: Percent Control
Source text: as §1

CASK = CASK (Homo sapiens, UniProt O14936); conditions: read-out: Percent Control
Chain of CASK (O14936 whole entry): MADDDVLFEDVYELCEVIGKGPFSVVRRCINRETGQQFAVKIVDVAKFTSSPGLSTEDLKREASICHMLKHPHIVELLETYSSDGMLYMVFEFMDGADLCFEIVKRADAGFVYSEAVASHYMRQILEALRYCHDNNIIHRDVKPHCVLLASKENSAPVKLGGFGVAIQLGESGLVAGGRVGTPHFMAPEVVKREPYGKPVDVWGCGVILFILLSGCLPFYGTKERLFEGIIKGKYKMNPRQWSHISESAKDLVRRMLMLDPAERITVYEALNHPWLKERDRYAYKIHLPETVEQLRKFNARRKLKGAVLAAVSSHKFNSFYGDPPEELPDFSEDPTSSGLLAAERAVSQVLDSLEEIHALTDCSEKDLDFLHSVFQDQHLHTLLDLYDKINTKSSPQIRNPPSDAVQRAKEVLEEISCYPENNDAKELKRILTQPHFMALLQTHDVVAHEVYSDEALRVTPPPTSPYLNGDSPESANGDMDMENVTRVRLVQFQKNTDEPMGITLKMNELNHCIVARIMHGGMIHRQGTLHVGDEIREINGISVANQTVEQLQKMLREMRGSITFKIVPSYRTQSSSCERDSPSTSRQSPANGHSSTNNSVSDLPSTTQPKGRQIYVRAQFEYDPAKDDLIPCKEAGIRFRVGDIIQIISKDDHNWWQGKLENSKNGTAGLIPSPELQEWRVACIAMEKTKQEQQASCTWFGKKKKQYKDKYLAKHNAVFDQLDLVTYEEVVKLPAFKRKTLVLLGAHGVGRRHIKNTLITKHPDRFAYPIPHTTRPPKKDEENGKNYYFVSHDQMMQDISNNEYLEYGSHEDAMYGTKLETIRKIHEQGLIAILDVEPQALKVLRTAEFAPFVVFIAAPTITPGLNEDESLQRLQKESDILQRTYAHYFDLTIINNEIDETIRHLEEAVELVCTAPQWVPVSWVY
Source text: as §1

CAMK2D = CAMK2D (Homo sapiens, UniProt Q13557); conditions: 1000 nM, read-out: Percent Control
Source text: as §1

CSNK1G1 = CSNK1G1 (Homo sapiens, UniProt Q9HCP0); conditions: 1000 nM, read-out: Percent Control
Source text: as §1

CDK3 = CDK3 (Homo sapiens, UniProt Q00526); conditions: 1000 nM, read-out: Percent Control
Source text: as §1

BUB1 = BUB1 (Homo sapiens, UniProt O43683); conditions: 1000 nM, read-out: Percent Control
Source text: as §1

RIOK3 = RIOK3 (Homo sapiens, UniProt O14730); conditions: 1000 nM, read-out: Percent Control
Source text: as §1

MYLK2 = MYLK2 (Homo sapiens, UniProt Q9H1R3); conditions: 1000 nM, read-out: Percent Control
Source text: as §1

CN1C(=O)[C@@H](N2CCc3c(nn(Cc4ccccc4)c3C(N)=O)C2=O)COc2cc(Cl)ccc21 [Compound 10, (S)-2-benzyl-6-(8-chloro-5-methyl-4-oxo-2,3,4,5-tetrahydrobenzo[b][1,4]oxazepin-3-yl)-7-oxo-4,5,6,7-tetrahydro-2H-pyrazolo[3,4-c]pyridine-3-carboxamide]
remaining binding at 1 µM (PRKD1): 97%
remaining binding at 1 µM (FRK): 81%
remaining binding at 0.1 µM (TLK2): 82%
remaining binding at 1 µM (ACVRL1): 91%
remaining binding at 0.1 µM [1]: 100%
remaining binding at 1 µM (CDKL5; 1000 nM): 100%
remaining binding at 0.1 µM (CDKL5; compound concentration 100 nM, Entrez CDKL5): 100%
remaining binding at 0.1 µM (PCTK1): 100%
remaining binding at 1 µM (BMPR1B; 1000 nM): 100%
remaining binding at 0.1 µM (BMPR1B; compound concentration 100 nM, Entrez BMPR1B): 88%
remaining binding at 0.1 µM [2]: 81%
remaining binding at 1 µM (GRK4): 75%
remaining binding at 1 µM (CDK7; 1000 nM): 99%
remaining binding at 0.1 µM (CDK7; compound concentration 100 nM, Entrez CDK7): 72%
remaining binding at 1 µM (GSK3A): 98%
remaining binding at 1 µM (NDR1): 97%
remaining binding at 1 µM (MET): 94%
remaining binding at 1 µM (AMPK-alpha2; 1000 nM): 100%
remaining binding at 0.1 µM (AMPK-alpha2; compound concentration 100 nM, Entrez PRKAA2): 100%
remaining binding at 1 µM (DAPK1): 96%
remaining binding at 0.1 µM (TGFBR1): 100%
remaining binding at 1 µM (BRSK1): 85%
remaining binding at 0.1 µM (SGK): 98%
remaining binding at 1 µM (MAP4K4): 94%
remaining binding at 1 µM (ERK8; 1000 nM): 100%
remaining binding at 0.1 µM (ERK8; compound concentration 100 nM, Entrez MAPK15): 82%
remaining binding at 1 µM (HCK): 92%
remaining binding at 1 µM (AKT1): 91%
remaining binding at 1 µM (PFPK5(P.falciparum)): 66%
remaining binding at 1 µM (SRPK1): 88%
remaining binding at 1 µM (CDK5; 1000 nM): 99%
remaining binding at 0.1 µM (CDK5; compound concentration 100 nM, Entrez CDK5): 78%
remaining binding at 1 µM (PIM2): 91%
remaining binding at 1 µM (AURKC): 90%
remaining binding at 1 µM (PCTK3): 88%
remaining binding at 0.1 µM (WNK1): 92%
remaining binding at 1 µM (CASK; 1000 nM): 100%
remaining binding at 0.1 µM (CASK; compound concentration 100 nM, Entrez CASK): 80%
remaining binding at 1 µM (CAMK2D): 89%
remaining binding at 1 µM (CSNK1G1): 91%
remaining binding at 1 µM (CDK3): 87%
remaining binding at 1 µM (BUB1): 78%
remaining binding at 1 µM (RIOK3): 77%
remaining binding at 1 µM (MYLK2): 84%
